Measured values from publication PMC13534789, “Molecular Glue Degraders Enhance CAPRIN1‐Dependent Lysosomal Degradation of APP and Reduce Amyloid β in Alzheimer's Disease” (Advanced Science, 2026).

Tests used:
[1] = biological target: T1, APP695–CAPRIN1 interaction (Homo sapiens, UniProt P05067+Q14444); assay: SPR, APP695 onto immobilized CAPRIN1 with 0152; type: binding; details: equimolar 0152 vs no compound
T1 construct: 10xHis‐MBP‐APP695 (full‐length) alone was loaded; 10xHis (N); MBP (followed by a 3C site) (N); 10xHis (followed by a 3C site) (N); made in house; host or cells: Tni (Hi5) insect cells, baculovirus
T1 sequence (P05067 18-695 isoform P05067-4 limits assumed): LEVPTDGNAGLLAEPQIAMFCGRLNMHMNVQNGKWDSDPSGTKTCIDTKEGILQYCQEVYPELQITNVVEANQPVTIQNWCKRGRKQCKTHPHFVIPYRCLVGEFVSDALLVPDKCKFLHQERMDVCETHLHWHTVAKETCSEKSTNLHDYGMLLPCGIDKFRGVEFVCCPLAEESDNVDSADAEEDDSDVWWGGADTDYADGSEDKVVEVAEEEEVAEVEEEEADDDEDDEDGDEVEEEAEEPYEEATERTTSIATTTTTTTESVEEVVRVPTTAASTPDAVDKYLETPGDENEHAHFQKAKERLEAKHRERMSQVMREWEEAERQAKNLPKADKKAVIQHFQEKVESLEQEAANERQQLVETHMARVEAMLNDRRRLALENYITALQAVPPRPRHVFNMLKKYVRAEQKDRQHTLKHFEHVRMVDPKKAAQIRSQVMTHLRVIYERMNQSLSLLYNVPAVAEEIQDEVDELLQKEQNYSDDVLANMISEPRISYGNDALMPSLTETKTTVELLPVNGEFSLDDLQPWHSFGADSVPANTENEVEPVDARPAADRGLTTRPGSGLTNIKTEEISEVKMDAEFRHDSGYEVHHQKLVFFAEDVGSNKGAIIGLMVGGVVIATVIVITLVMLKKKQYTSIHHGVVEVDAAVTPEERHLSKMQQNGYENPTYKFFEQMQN
T1 sequence (Q14444 whole entry): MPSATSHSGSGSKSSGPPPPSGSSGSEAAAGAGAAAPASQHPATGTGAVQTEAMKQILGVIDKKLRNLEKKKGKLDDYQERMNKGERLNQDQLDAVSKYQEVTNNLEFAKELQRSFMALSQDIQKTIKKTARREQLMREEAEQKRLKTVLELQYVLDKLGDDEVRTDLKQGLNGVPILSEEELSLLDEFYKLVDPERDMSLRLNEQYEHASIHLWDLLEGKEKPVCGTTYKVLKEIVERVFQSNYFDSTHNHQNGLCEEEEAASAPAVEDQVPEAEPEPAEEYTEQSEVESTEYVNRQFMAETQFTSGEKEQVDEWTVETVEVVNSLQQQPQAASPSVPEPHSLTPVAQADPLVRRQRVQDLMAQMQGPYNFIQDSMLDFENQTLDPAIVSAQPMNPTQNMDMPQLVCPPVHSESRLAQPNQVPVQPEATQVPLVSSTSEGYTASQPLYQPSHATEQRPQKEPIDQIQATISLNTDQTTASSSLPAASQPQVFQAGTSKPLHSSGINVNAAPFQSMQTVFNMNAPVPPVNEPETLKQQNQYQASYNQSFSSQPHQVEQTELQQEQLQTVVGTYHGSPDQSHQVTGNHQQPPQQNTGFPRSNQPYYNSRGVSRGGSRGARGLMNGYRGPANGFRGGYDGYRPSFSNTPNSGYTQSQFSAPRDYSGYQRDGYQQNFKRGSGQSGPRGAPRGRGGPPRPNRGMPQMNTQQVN
Experimental: SPR experiments were conducted to investigate the interaction between APP695 and CAPRIN1 proteins using a Biacore T200 instrument (Cytiva). Both proteins were expressed in Tni (Hi5) insect cells and purified to homogeneity via tandem affinity and ion‐exchange. Protein purity and integrity were confirmed by SDS‐PAGE and size‐exclusion chromatography prior to analysis. All experiments were performed in a running buffer consisting of 50 mM HEPES at […], 100 mM KCl, 10% glycerol, and 0.01% (v/v) Tween‐20 supplemented with 0.1% (w/v) Sarkosyl (pH 7.4). APP695 was serially diluted in running buffer to final concentrations of 15, 5, 1, and 0.3 µM. Chip Preparation: A CM5 sensor chip (Cytiva) was activated using a 1:1 (v/v) mixture of 0.1 M N‐hydroxysuccinimide (NHS) and 0.1 M N‐ethyl‐N′‐(3‐dimethylaminopropyl) carbodiimide (EDC) to generate reactive ester groups. CAPRIN1 was diluted to 50 µg/mL in 10 mM Hepes‐KOH buffer (pH 6.0) and immobilized on the chip surface via standard amine coupling to achieve immobilization. Unreacted sites were blocked with 1 M ethanolamine‐HCl (pH 8.5). A reference flow cell was prepared similarly but without protein immobilization to control for non‐specific binding and bulk refractive index changes. Binding assay: Binding interactions were measured at 25°C with a flow rate of 30 µL/min. APP695 solutions were injected over the CAPRIN1‐immobilized and reference flow cells for 45 s (association phase), followed by a 240 s dissociation phase with running buffer alone. Internal control injections for one concentration of APP695 were performed to ensure reproducibility for every round of the experiment. […] APP (1–300) was also tested for binding to CAPRIN1 under identical conditions. To assess potential non‐specific interactions, 0043 and 0152 were tested for binding to APP‐695 captured on a CM5 chip using a steady‐state model. Data analysis: Sensograms were processed using Biacore T200 Evaluation Software. […]

APP mRNA = assay: qRT-PCR of APP mRNA; type: cell-based, human; details: 72 h
Experimental: Total RNA was isolated using the RNeasy kit (Qiagen), followed by synthesis for cDNA with a reverse transcription reaction (Quantitect Reverse Transcription kit). The sequences for APP and GAPDH are in Table S1. Quantitative PCR was performed on QuantStudio 6 Flex (Applied Biosystems). The expression levels of APP were normalized to the GAPDH mRNA levels and represented relative to the expression in control cells. The results were analyzed with the delta‐delta‐Ct methods. Ct values were calculated using QuantStudio Design & Analysis Software, and relative expression levels were analyzed with GraphPad Prism.

Aβ42 = Aβ42 ELISA of conditioned media, HEK-APP695WT cells; type: cell-based, human; details: 72 h
Experimental: iPSC‐Ns or HEK‐APP695WT were treated with drugs, and secreted Aβ42 peptides inculture soup were quantified using the Human Amyloid β1‐42 human ELISA kit (Thermo Fisher) according to the manufacturer's protocol. Mouse brain extraction was performed as previously described, with minor modifications. Mouse brain tissues were homogenized at a 1:10 weight‐to‐volume ratio in Tris‐buffered saline (TBS; 50 mM Tris, pH 7.4, 150 mM NaCl) supplemented with 2 mM EDTA and protease inhibitors. TBS‐homogenized brains were centrifuged for 1 h at 16 000 g. To extract total Aβ, including insoluble fractions, formic acid was added to a final concentration of 70%, and the samples were thoroughly mixed by pipetting. […] Prior to quantification, formic acid‐containing samples were neutralized with 1 M Tris base (pH 11). Aβ40 and Aβ42 levels were measured using human‐specific ELISA kits (Invitrogen) and normalized to total protein concentrations determined by the BCA assay (Thermo Scientific). For Aβ quantification in 3D organoids, 3D organoids’ processing and ELISA analysis were performed with minor modifications from previously described protocols. […] Aβ42 levels in both fractions were measured using human‐specific ELISA kits (Thermo Fisher) according to the manufacturer's instructions. […] Aβ levels were normalized to total protein concentration determined by BCA assay.

CAPRIN1–APP interaction = CAPRIN1–APP interaction (Homo sapiens, UniProt P05067+Q14444); assay: In vitro binding assay, recombinant CAPRIN1 and APP (reciprocal co-IP); set-up: recombinant human CAPRIN1 (full length, 100 ng) was added; purchased Biolegend; details: concentration-dependent
Sequence of CAPRIN1–APP interaction (Q14444 whole entry): as above
Sequence of CAPRIN1–APP interaction (P05067 18-770): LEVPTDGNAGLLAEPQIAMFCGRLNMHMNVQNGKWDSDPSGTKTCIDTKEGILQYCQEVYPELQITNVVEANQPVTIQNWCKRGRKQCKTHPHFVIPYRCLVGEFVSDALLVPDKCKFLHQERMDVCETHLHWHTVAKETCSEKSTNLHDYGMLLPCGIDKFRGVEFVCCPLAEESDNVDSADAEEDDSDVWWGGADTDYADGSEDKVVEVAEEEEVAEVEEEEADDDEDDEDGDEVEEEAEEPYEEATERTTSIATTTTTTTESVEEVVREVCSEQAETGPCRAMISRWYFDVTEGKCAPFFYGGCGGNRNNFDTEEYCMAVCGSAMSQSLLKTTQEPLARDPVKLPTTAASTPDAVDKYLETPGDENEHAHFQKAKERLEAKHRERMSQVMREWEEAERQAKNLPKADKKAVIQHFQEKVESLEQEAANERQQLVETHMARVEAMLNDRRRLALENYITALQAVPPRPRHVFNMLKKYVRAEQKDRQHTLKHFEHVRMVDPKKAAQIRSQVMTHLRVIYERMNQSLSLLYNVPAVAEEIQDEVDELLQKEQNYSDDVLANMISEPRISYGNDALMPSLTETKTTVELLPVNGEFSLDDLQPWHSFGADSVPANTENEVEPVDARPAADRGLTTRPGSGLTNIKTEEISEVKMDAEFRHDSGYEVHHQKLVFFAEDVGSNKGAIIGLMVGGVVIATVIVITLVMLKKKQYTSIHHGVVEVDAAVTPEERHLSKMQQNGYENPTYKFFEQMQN
Experimental: When CAPRIN1 was used as a bait, recombinant CAPRIN1 (200 ng) was mixed with anti‐CAPRIN1 antibodies (1 µg) in IP buffer (25 mM Tris, 150 mM NaCl, 5% Glycerol, and 1% Triton X‐100 at pH 7.4) overnight at 4°C, followed by the addition of Protein‐G agarose beads for 4 h at 4°C. CAPRIN1 conjugated beads were then washed with binding buffer (20 mM HEPES, 100 mM NaCl, 0.01% Triron X‐100, and 5% Glycerol at pH 7.25) before the addition of recombinant human APP (prey) for 1 h at 4°C. Beads were washed and eluted with Laemmli buffer with boiling, followed by Western blotting. When APP was used as a bait, biotin‐conjugated APP antibody (1 µg; 4G8, Biolegend) was pre‐mixed with recombinant APP (100 ng, Biolegend) in pulldown buffer (0.1% NP‐40, 50 mM Tris, 150 mM NaCl, 0.2 mM EDTA, 100 mM KCl, 1 mM MgCl2, 0.2 mM CaCl2, and 10% glycerol) overnight at 4°C, followed by addition of 0.5 mg of Streptavidin magnetic beads (Pierce) for 1 h at 4°C. After washing the beads, recombinant human CAPRIN1 (full length, 100 ng) was added together with dose‐dependent 0043 in the binding buffer for 1 h at 4°C. Beads were washed and eluted with Laemmli buffer with boiling, followed by Western blotting.

| SMILES | Decrease of dissociation rate constant (Koff) of APP695–CAPRIN1 [1] [fold] | Increase of association rate constant (Kon) of APP695–CAPRIN1 [1] [fold] | Reduction of equilibrium dissociation constant (KD) of APP695–CAPRIN1 [1] [fold] | APP mRNA expression (qRT-PCR) (APP mRNA; AD iPSC-Ns) | APP mRNA (qRT-PCR) (APP mRNA; HEK-APP695WT cells) | Aβ42 in conditioned media (Aβ42; 10 µM) | Extracellular Aβ42 (ELISA) (Aβ42; increasing concentrations) | Interaction of recombinant CAPRIN1 and APP (reciprocal co-IP) (CAPRIN1–APP interaction) |
| --- | --- | --- | --- | --- | --- | --- | --- | --- |
| COc1cccc(NC(=O)Nc2nc3ccc(C(=O)N4CCOCC4)cc3s2)c1 [compound 0152] | 10 | 3.5 | 36 |  |  |  |  |  |
| N#Cc1cccc(NC(=O)Nc2nc3ccc(C(=O)N4CCOCC4)cc3s2)c1 [compound 0043] |  |  |  | nor did it alter APP mRNA expression | no significant changes | most potent in reducing Aβ42 | reduced intracellular APP and extracellular Aβ42 levels in a dose‐dependent manner | enhanced the interaction between CAPRIN1 and APP |
